{"source": "patent US8476196B2", "about": "“Control of harmful algal blooms by induction of programmed cell death” (University of South Florida, priority 2009, dated 2013)", "key": {"[1]": {"system": "Karenia brevis (Piney Island A2)", "assay": "K. brevis culture treatment, intact cell counts (light microscope / FlowCam)", "assay_type": "cell-based", "conditions": "for cell appearance in FlowCam images: 100 μM final concentration, treated flasks", "description": "The present inventors have determined that NO may be used to trigger cell death in Karenia brevis and potentially other harmful algae. The response to low concentrations occurs within 24 hours and varies with concentration. To describe the dose response, cultures of K. brevis (Piney Island A2) were exposed to varied concentrations of the nitric oxide donor diethylamine NONOate sodium salt hydrate or DEA NONOate (IUPAC name: sodium N-(diethylamino)-N-oxidonitrous amide).\nWork described by Chung et al. (2008) employed 500 μM DEA NO to elicit ScDSP-1 expression in Skeletonema costatum. The present inventors sought to determine the low end of the dose response, if any effect, in K. brevis. Trials therefore tested the effect of DEA NONOate concentrations ranging from 100 μM to 0.1 μM. For each trial, K. brevis cultures were grown in L1 media. Cultures were diluted 1:1 from a stock flask into a total volume of 125 mL in 250-mL acid washed and autoclaved flasks. Cultures were allowed to recover for 2-4 days prior to treatment. Immediately prior to treatment, DEA NONOate (Sigma-Aldrich, St. Louis, Mo.) was dissolved from its powdered form in sterile nuclease-free water. The solution was made to a concentration of 1 mg mL^−1. Two trials were performed to delineate responses to different concentrations of NO. In each case, the appropriate volume of DEA NONO solution was added and the cultured swirled by hand gently to mix the solution. Control flasks were also used for each trial; these received only an aliquot of the water used for dissolving DEA NONOate, equal to the largest volume administered to treatment flasks for that trial. At the concentration of 1 mg mL^−1, volumes of DEA NONO solution added ranged from 1.9 mL to 1.9 μL for 100 μM to 0.1 μM final concentrations in culture flasks. Three replicate flasks were used for each concentration and negative controls. Prior to treatment and at each sampling point after treatment, 5 mL of culture were removed for counting. A 1 mL aliquot was imaged/counted on the FlowCam flow-through microscope and the remainder was stained with Lugol's iodine solution and counted by light microscope on a gridded Sedgewick counting slide (1 mm^2 grid size). For slide counting, 50-70 grid squares were counted for each sample. Although counts were obtained for most samples by FlowCam and light microscopy, the light microscope counts were used for recording quantitative data while FlowCam images were used as a record of cell appearances."}, "[2]": {"system": "Karenia brevis (Piney Island A2)", "assay": "K. brevis culture treatment, intact cell counts (light microscope / FlowCam)", "assay_type": "cell-based", "conditions": "20 μM final concentration, higher-density cultures, T=2 days, two replicates"}, "caspase 3": {"system": "caspase 3", "assay": "Colorimetric caspase-like enzyme activity in K. brevis, caspase 3", "assay_type": "cell-based, Karenia brevis", "description": "(§1) Since caspase activity is a hallmark of PCD, experiments were conducted to examine caspase-like enzyme activity in K. brevis. The activity of enzymes that are similar to caspase-3 and caspase-8 were examined. The assays use a commercially available kit (MBL International, Woburn, Mass.) to measure the protease activity specific to certain amino acid sequence motifs. A short time series was performed to measure upregulation of caspase-like activity due to exposure to NO. NO was produced from the compound DEA-NONOate (use of this is previously described herein). […] Based on these findings, there is at least a 2-3 fold up-regulation of caspase-like activity due to NO exposure at 50-100 micromolar. This provides evidence that K. brevis death due to NO exposure is mediated by PCD pathways in the cells. This activity appears rapidly (within 20 minutes), and can decline rapidly (by 120 minutes). The decline is presumably due to actual death of the cells, since at the 120 minute mark, many cells were already in the process of lysis when viewed microscopically."}, "caspase 8": {"system": "caspase 8", "assay": "Colorimetric caspase-like enzyme activity in K. brevis, caspase 8", "assay_type": "cell-based, Karenia brevis", "description": "as §1"}, "caspase-like activity [3]": {"system": "caspase-like activity", "assay": "Caspase-like activity in K. brevis, summary statements", "assay_type": "cell-based, Karenia brevis", "description": "as §1"}, "ScDSP-1": {"system": "ScDSP-1", "conditions": "Skeletonema costatum; cited from earlier work"}, "caspase-like activity [4]": {"system": "caspase-like activity", "conditions": "pretreatment before supplementation of NO donors; cited from earlier work"}, "[5]": {"conditions": "Experiment 1, 100 uM NO, 60 min"}, "[6]": {"conditions": "Experiment 1, 100 uM NO, 120 min"}}}
{"compound": "CCN(CC)N([O-])N=O.[Na+]", "note": "[DEA NONOate, sodium N-(diethylamino)-N-oxidonitrous amide, reference compound]", "values": [{"measurement": "cell appearance in FlowCam images", "setting": "[1]", "value": "all particles imaged by the FlowCam resembled the disrupted cells"}, {"measurement": "cell appearance in FlowCam images", "setting": "[1]; listed as DEA NONO", "value": "disrupted"}, {"measurement": "intact cells present", "setting": "[1]; 100 μM, 1 day post-treatment", "value": "no intact cells were observed"}, {"measurement": "intact cells present", "setting": "[1]; 100 μM, 2 days post-treatment", "value": "no intact cells were observed"}, {"measurement": "decrease of average intact cell count from pre-treatment counts", "setting": "[2]", "value": 98.6, "unit": "%"}]}
{"compound": "CC(C)C[C@H](NC(=O)[C@H]1O[C@@H]1C(=O)O)C(=O)NCCCCN=C(N)N", "note": "[E-64, L-transepoxysuccinyl-leucylamido-[4-guanidino]butane, reference compound]", "values": [{"measurement": "protection against NO-induced mortality", "setting": "[1]; E-64 10 μM added with 20 μM NO", "value": "no protection"}]}
{"compound": "[N]=O", "note": "[NO, nitric oxide]", "values": [{"measurement": "cell counts of surviving cells (recovery)", "setting": "[1]; 10 μM, T=5 days", "value": "increased to greater than pre-treatment numbers"}, {"measurement": "intact cells present", "setting": "[1]; 100 μM, 1 day post-treatment", "value": "no intact cells were present"}, {"measurement": "cell death", "setting": "[1]; 100 μM, 24 hours", "value": "complete cell death"}, {"measurement": "intact cells present", "setting": "[1]; 100 μM, 2 days post-treatment", "value": "no intact cells were present"}, {"measurement": "mortality at 10 µM", "setting": "[1]; Karenia brevis, 10 μM, second trial (FIG. 3), read-out: mortality / reduction of intact cells from pre-treatment numbers", "value": "~50", "unit": "%"}, {"measurement": "mortality at 20 µM", "setting": "[1]; Karenia brevis, 20 μM NO (FIG. 4)", "value": "~50", "unit": "%"}, {"measurement": "time in which response to low concentrations occurs", "setting": "[1]; low concentrations", "value": "≤ 24", "unit": "h"}, {"measurement": "effect on intact cell numbers", "setting": "[1]; lower concentrations, 1 μM or less (0.1 μM, 1 μM)", "value": "no effect"}, {"measurement": "Absorbance of colorimetric caspase cleavage product, caspase 3", "setting": "caspase 3; [5]", "value": 0.014}, {"measurement": "Upregulation vs. control (fold), caspase 3", "setting": "caspase 3; [5]", "value": 14, "unit": "fold"}, {"measurement": "Absorbance of colorimetric caspase cleavage product, caspase 3", "setting": "caspase 3; [6]", "value": 0.001}, {"measurement": "Upregulation vs. control (fold), caspase 3", "setting": "caspase 3; [6]", "value": 1, "unit": "fold"}, {"measurement": "Absorbance of colorimetric caspase cleavage product, caspase 3", "setting": "caspase 3; Experiment 2, 50 uM NO, 20 min", "value": 0.016}, {"measurement": "Upregulation vs. control (fold), caspase 3", "setting": "caspase 3; Experiment 2, 50 uM NO, 20 min", "value": 2.7, "unit": "fold"}, {"measurement": "Absorbance of colorimetric caspase cleavage product, caspase 3", "setting": "caspase 3; Experiment 2, 50 uM NO, 40 min", "value": 0.016}, {"measurement": "Upregulation vs. control (fold), caspase 3", "setting": "caspase 3; Experiment 2, 50 uM NO, 40 min", "value": 2.7, "unit": "fold"}, {"measurement": "Absorbance of colorimetric caspase cleavage product, caspase 3", "setting": "caspase 3; Experiment 2, 50 uM NO, 60 min", "value": 0.013}, {"measurement": "Upregulation vs. control (fold), caspase 3", "setting": "caspase 3; Experiment 2, 50 uM NO, 60 min", "value": 2.2, "unit": "fold"}, {"measurement": "Absorbance of colorimetric caspase cleavage product, caspase 8", "setting": "caspase 8; [5]", "value": 0.017}, {"measurement": "Upregulation vs. control (fold), caspase 8", "setting": "caspase 8; [5]", "value": 2.4, "unit": "fold"}, {"measurement": "Absorbance of colorimetric caspase cleavage product, caspase 8", "setting": "caspase 8; [6]", "value": 0.006}, {"measurement": "Upregulation vs. control (fold), caspase 8", "setting": "caspase 8; [6]", "value": 0.9, "unit": "fold"}, {"measurement": "Absorbance of colorimetric caspase cleavage product, caspase 8", "setting": "caspase 8; Experiment 2, 50 uM NO, 20 min", "value": 0.021}, {"measurement": "Upregulation vs. control (fold), caspase 8", "setting": "caspase 8; Experiment 2, 50 uM NO, 20 min", "value": 2.1, "unit": "fold"}, {"measurement": "Absorbance of colorimetric caspase cleavage product, caspase 8", "setting": "caspase 8; Experiment 2, 50 uM NO, 40 min", "value": 0.019}, {"measurement": "Upregulation vs. control (fold), caspase 8", "setting": "caspase 8; Experiment 2, 50 uM NO, 40 min", "value": 1.9, "unit": "fold"}, {"measurement": "Absorbance of colorimetric caspase cleavage product, caspase 8", "setting": "caspase 8; Experiment 2, 50 uM NO, 60 min", "value": 0.018}, {"measurement": "Upregulation vs. control (fold), caspase 8", "setting": "caspase 8; Experiment 2, 50 uM NO, 60 min", "value": 1.8, "unit": "fold"}, {"measurement": "time by which caspase-like activity can decline", "setting": "caspase-like activity [3]; NO exposure", "value": "≤ 120", "unit": "min"}, {"measurement": "time in which caspase-like activity appears", "setting": "caspase-like activity [3]; NO exposure", "value": "≤ 20", "unit": "min"}, {"measurement": "up-regulation of caspase-like activity", "setting": "caspase-like activity [3]; NO exposure at 50-100 micromolar", "value": "2-3 fold"}, {"measurement": "expression of a death specific protein", "setting": "ScDSP-1", "value": "induce expression of a death specific protein"}]}
{"compound": "Ac-DEVD-CHO", "values": [{"measurement": "effect on increase in caspase-like activity", "setting": "caspase-like activity [4]", "value": "prevented increase in caspase-like activity"}]}
